In data set [1] the test system is Ceriodaphnia dubia. Put plainly: whole plant or invertebrate. The conditions noted are these: read-out: EC 50, effective concentration for 50% survival.
In data set [2] the test system is Bluegill (Lepomis macrochirus). Particulars: in vivo; cited from earlier work.

In brackets after ≈: the same amount, converted by molar mass. Read-outs that look alike come from different tables or passages of the source.

Consider `CCOP(=S)(OCC)Oc1cc(C)nc(C(C)C)n1` [Untreated diazinon, diazinon], for which the values for the EC50 in data set [1] (24 h) and in data set [1] (48 h) were 0.389 ng/mL (≈ 1.28 nM) and 0.195 ng/mL (≈ 0.641 nM), respectively.

Take `CCOP(O)(=S)OCC` [diethyl thiophosphoric acid]: the “toxicity compared with the parent compound chlorpyriphos” value in data set [2] is “considerably less toxic than the parent compound”.

These data come from patent publication US9796990B2 (priority 2011, dated 2017).
